From patent US20180207069A1, “COSMETIC USE OF A MONOUNSATURATED FATTY ACID OR ONE OF ITS SALTS AND/OR OF ITS ESTERS AS DEODORANT ACTIVE AGENT” (L'OREAL, priority 2012, published 2018)
In brackets after ≈: the same amount, converted by molar mass.

Assays:
Assay type in all cases: cell-based
[1] = test system: Corynebacterium mucifaciens; assay: GC/MS (SPME) analysis of volatile compounds of cultures, C. mucifaciens; conditions: C. mucifaciens culture, 37° C., 48 hours
Description: (§1) The four microorganisms were each cultured in a liquid medium comprising 1.6 g/l of KH2PO4, 5.0 g/l of (NH4)2HPO4, 0.38 g/l of Na2SO4, 3.35 g/l of yeast nitrogen base (difco), 0.5 g/l of yeast extract and 0.5 g/l of MgCl2.6H2O, 1.0 g/l of Tween 80, 1.0 g/l of valine, 1.0 g/l of leucine, 1.0 g/l of isoleucine and 1.0 g/l of methionine. Depending on the analyses to be carried out (profile of the odour by GC/MS or sensory evaluation), the various types of culture medium were prepared either in 2 ml of culture (high-throughput screening format in 96-well microtitration plates) or else 200 ml in Erlenmeyer flasks. For the GC/MS analyses, 2 ml of culture are sufficient but, for the sensory evaluation, for a panel of 12 people, the minimum amount of 200 ml of culture is necessary. […]
(§2) The strains were cultured aerobically at 37° C. for 48 hours. The magnitude of the growth was measured with the optical density (OD) at 600 nm. The cultures were subsequently analyzed for volatile odorous compounds by SPME-GC/MS. […]
(§3) In order to determine the relative amount of volatile compounds present in the culture medium, a solid phase microextraction (SPME; Supelco, USA), gas chromatography coupled with mass spectrometry (HS-SPME-GC/MS; Fisons, USA), is carried out. […] The mass spectra were recorded over an m/z range of 30-250. […]

[2] = test system: Staphylococcus epidermidis; assay: GC/MS (SPME) analysis of volatile compounds of cultures, S. epidermidis; conditions: S. epidermidis culture, 37° C., 48 hours
Description: as §1, §2, §3

[3] = test system: Staphylococcus epidermidis; assay: In vitro sensory evaluation of culture odour, S. epidermidis; conditions: petroselinic acid 0.05 g/l in culture medium, panel of 12 experts
Description: as §1, with “flasks.” for “flasks. For the GC/MS analyses, 2 ml of culture are sufficient but, for the sensory evaluation, for a panel of 12 people, the minimum amount of 200 ml of culture is necessary.”
as §2
(§4) For the sensory analysis, the minimum amount of 200 ml of culture medium is necessary for a panel of 12 experts. […] Before the sensory analysis, the cultures were sterilized by filtration and the filtrates were stored at 4° C. until analyzed. In a first phase, the profile of the odour was evaluated on the basis of the strongest odours by the sensory panel, with an intensity grade which varies from 1 to 4 (1—a little, 2—moderate, 3—strong and 4—very strong). […]

[4] = test system: Corynebacterium mucifaciens; assay: In vitro sensory evaluation of culture odour, C. mucifaciens; conditions: petroselinic acid 0.05 g/l in culture medium, panel of 12 experts
Description: as §1, with “flasks.” for “flasks. For the GC/MS analyses, 2 ml of culture are sufficient but, for the sensory evaluation, for a panel of 12 people, the minimum amount of 200 ml of culture is necessary.”
as §2, §4

[5] = test system: Corynebacterium striatum; assay: In vitro sensory evaluation of culture odour, C. striatum; conditions: petroselinic acid 0.05 g/l in culture medium, panel of 12 experts
Description: as §1, with “flasks.” for “flasks. For the GC/MS analyses, 2 ml of culture are sufficient but, for the sensory evaluation, for a panel of 12 people, the minimum amount of 200 ml of culture is necessary.”
as §2, §4

[6] = test system: Corynebacterium striatum; assay: GC/MS (SPME) analysis of volatile compounds of cultures, C. striatum; conditions: C. striatum culture, 37° C., 48 hours
Description: as §1, §2, §3

[7] = test system: Corynebacterium mucifaciens; assay: Minimum Inhibitory Concentration (MIC), C. mucifaciens; conditions: LMG19067, read-out: Minimum Inhibitory Concentration (MIC) C. mucifaciens
Description: (§5) The Minimum Inhibitory Concentration (MIC) on the microorganisms Corynebacterium striatum, Corynebacterium mucifaciens and Corynebacterium xerosis with the following active agents was compared.

[8] = test system: Corynebacterium xerosis; assay: Minimum Inhibitory Concentration (MIC), C. xerosis; conditions: DSM20743, read-out: Minimum Inhibitory Concentration (MIC) C. xerosis
Description: as §5

[9] = test system: Corynebacterium striatum; assay: Minimum Inhibitory Concentration (MIC), C. striatum; conditions: LMG19648, read-out: Minimum Inhibitory Concentration (MIC) C. striatum
Description: as §5

[10] = acid added to culture medium (petroselinic 0.05, linolenic 0.5, myristic 0.005, azelaic 0.5 g/l)
[11] = petroselinic acid 0.05 g/l in culture medium

Compound | aldehydes in the odour profile [1, 10] | concentration of ketone compounds [1, 11] | amount of aldehydes [2, 10] | concentration of ketone compounds [2, 11] | description of the odour notes [3] | resulting odour as perceived by the panel of experts [3] | description of the scent [4] | perception of the odour [4] | description of the odour notes [5] | resulting odour as perceived by the panel of experts [5] | amount of aldehydes [6, 10] | concentration of ketone compounds [6, 11] | MIC [7] [µg/mL] | MIC [8] [µg/mL] | MIC [9] [µg/mL]
CCCCCCCCCCC/C=C\CCCCC(=O)O [Petroselinic acid] | noticeable reduction | greater concentration | significant reduction | greater concentration | fresher notes with scents described as “green” and “putty” | more pleasant | scent described as “putty” | more pleasant | fresher notes with scents described as “green” and “putty” | more pleasant | significant reduction | greater concentration |  |  | 
Oc1cc(Cl)ccc1Oc1ccc(Cl)cc1Cl [Triclosan, 2,4,4′-trichloro-2′-hydroxydiphenyl ether] |  |  |  |  |  |  |  |  |  |  |  |  | 25 (≈ 86.3 µM) | 50 (≈ 173 µM) | 10 (≈ 34.5 µM)
